Assay [1] concerns the target T1, human V1a receptor (Homo sapiens, UniProt P37288). The assay can be described thus: In-vitro binding assay, 3H-arginine-8-vasopressin, V1a membranes. To be noted: V1a (first value of V1a/V2). As for the experimental part: (§1) Assay buffer is 50 mM Tris-Cl, 5 mM MgCl2, 0.1% BSA (pH 7.5) containing 5 μg/ml of aprotinin, leupeptin, pepstatin, 50 μg/ml bacitracin, and 1 mM Pefabloc (4-(2-Aminoethyl)-benzenesulfonyl fluoride, hydrochloride manufactured by Roche Diagnostics Corporation, Indianapolis, Ind. and distributed by Boehringer Mannheim). H3 vasopressin is ^3H-arginine-8-vasopressin (NEN Life Sciences, Boston, Mass.; 68.5 Ci/mmol, final concentration in assay is 0.65-0.75 nM). Into wells of 96-well round bottom polypropylene plates are added buffer, test compound, membrane (containing human V1a or V2 receptor), and H3 vasopressin. The reaction plates are allowed to sit at room temperature for one hour. The samples are filtered through Unifilter GF/C plates (PerkinElmer Life Sciences, Boston, Mass.) presoaked in 0.3 polyethyleneimine. The plates are washed 5 times with cold physiological saline containing 0.05% Tween 20. After drying, the bottom of the filter plates are sealed and 0.025 ml of Microscint-20 (Packard Instrument Co, Meriden, Conn.) is added to each filter. The top of the plate is sealed, and the plate is counted. Non-specific binding is determined by the addition of 1.25 μM arginine-8-vasopressin in those wells. % Inh. is calculated
(§2) [formula] as follows: (B) V1a Vasopressin Receptor Functional Activity

Assay [2] deals with T2, human V2 receptor (Homo sapiens, UniProt P30518). The assay can be described thus: In-vitro binding assay, 3H-arginine-8-vasopressin, V2 membranes. To be noted: V2 (second value of V1a/V2). The method, then:
as §1, §2

For assay [3], the target named is T2, human V2 receptor. Put plainly: V2 vasopressin receptor functional activity (cAMP accumulation, V2-HEK cells). It counts as cell-based. Also on record: expressed in transfected cells; host or cells: HEK-293. As to conditions: V2 (second value of V1a/V2); vasopressin-stimulated cAMP in transfected HEK-293 cells. As for the experimental part: The V2 receptor is also a G-protein coupled receptor which when activated induces an increase in cAMP turnover. Antagonism against the V2 receptor is determined by measuring cAMP accumulation in transfected HEK-293 cells expressing the human V-2 receptor (V2-HEK cells). Compounds are tested for their ability to block the stimulatory effects of vasopressin on cAMP accumulation. The cell content of cAMP is measured by radioimmunoassay using NEN flashplates.
(In general: cAMP levels reflect the balance of adenylyl cyclase and phosphodiesterase activity.)

Assay [4] has as its target T1, human V1a receptor. Put plainly: V1a vasopressin receptor functional activity (intracellular calcium mobilization, FLIPR, V1a-HEK cells). It counts as cell-based. To be noted: V1a (first value of V1a/V2); vasopressin-challenged transfected HEK-293 cells. As for the experimental part: The V1a receptor is a G-protein coupled receptor, which upon activation triggers an increase in intracellular calcium mobilization. To evaluate compounds for their functional V1a receptor activity, HEK-293 cells were transfected with the human V1a receptor (V1a-HEK cells). HEK-293 cells were grown in DMEM (Dulbecco's modified Eagle Media) supplemented with 10% FBS and glutamine. HEK-cells were passed biweekly by trypsinization and seeded into 96 well plates at 33,000 cells per well. HEK-293 cells were transfected with human V1a receptor DNA using DMRIE-C reagent from Life Technologies (Carlsbad, Calif.). Stable lines were generated by selecting cells grown in culture media containing geneticin. After growing in Packard Clear-View black 96 well plates for 4-6 days, V1a-HEK cells were loaded with the calcium-sensitive fluorescence dye, FLUO-3 AM. Changes in intracellular calcium mobilization were measured by quantitating intracellular fluorescence using FLIPR (Fluorometric Imaging Plate Reader; Molecular Devices, Sunnyvale, Calif.). Test compounds were first added to the cells and the resulting changes in fluorescence measured to detect receptor agonistic activity. Five minutes later the cells were challenged with vasopressin to test compounds for their antagonistic activity. Receptor antagonists inhibit the ability of vasopressin to stimulate increases in intracellular fluorescence. IC50's were calculated.
For orientation: A change in cytosolic calcium serves as a functional read-out for many receptors and channels.

As usually defined, the IC50 is the point on the concentration scale where inhibition reaches its midpoint.

T2 sequence (P30518 whole entry): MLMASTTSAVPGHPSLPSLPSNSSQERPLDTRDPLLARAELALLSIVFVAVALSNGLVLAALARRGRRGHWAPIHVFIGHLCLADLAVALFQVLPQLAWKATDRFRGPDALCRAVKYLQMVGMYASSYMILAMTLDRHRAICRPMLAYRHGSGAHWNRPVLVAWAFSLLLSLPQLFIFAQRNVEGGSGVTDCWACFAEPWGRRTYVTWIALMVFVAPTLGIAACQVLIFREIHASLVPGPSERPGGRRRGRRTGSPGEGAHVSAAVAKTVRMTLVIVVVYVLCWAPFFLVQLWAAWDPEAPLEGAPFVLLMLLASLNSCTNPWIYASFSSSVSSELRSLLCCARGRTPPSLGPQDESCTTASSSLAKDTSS
T1 sequence (P37288 whole entry): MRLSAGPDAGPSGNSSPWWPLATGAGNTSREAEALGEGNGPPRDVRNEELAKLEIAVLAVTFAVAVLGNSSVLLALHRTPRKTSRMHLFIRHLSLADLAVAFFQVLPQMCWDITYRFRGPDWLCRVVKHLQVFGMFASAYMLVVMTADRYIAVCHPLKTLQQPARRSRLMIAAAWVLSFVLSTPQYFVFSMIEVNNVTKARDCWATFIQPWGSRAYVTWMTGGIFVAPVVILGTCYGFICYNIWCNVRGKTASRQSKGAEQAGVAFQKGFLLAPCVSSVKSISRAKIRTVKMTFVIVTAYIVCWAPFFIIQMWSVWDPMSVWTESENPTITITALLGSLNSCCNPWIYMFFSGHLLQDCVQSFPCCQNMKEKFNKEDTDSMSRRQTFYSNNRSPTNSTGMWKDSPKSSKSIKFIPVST

On to `O=C(O)C1=C[C@@]2(CC1)CCN(C(=O)c1ccc(NC(=O)c3cc(F)ccc3Cl)cc1)c1ccccc1C2` [reference compound], for which the IC50 at human V1a receptor [1] worked out at 13 nM; on human V2 receptor [2] it was 53 nM; at human V2 receptor [3], 100 nM; on human V1a receptor [4], 380 nM.

Consider `CCOc1cc(C(=O)N2CC[C@]3(C=C(C(=O)O)CC3)Cc3ccccc32)ccc1NC(=O)c1cc(F)ccc1Cl` [Compound 31, (R)-4-(2-Chloro-5-fluorobenzoyl-3-ethoxy-4-aminobenzoyl)-4-aza-3′-carboxy-[6,4]-spiro-[5,6]-benzoundec-2′-ene], for which the IC50 was 8 nM on human V1a receptor [1], 71 nM at human V2 receptor [2], 150 nM at human V2 receptor [3] and 50 nM on human V1a receptor [4].

As for `COc1cc(C(=O)N2CC[C@]3(C=C(C(=O)O)CC3)Cc3ccccc32)ccc1NC(=O)c1cc(F)ccc1Cl` [Compound 29, (R)-4-(2-Chloro-5-fluorobenzoyl-3-methoxy-4-aminobenzoyl)-4-aza-3′-(carboxy)-[6,4]-spiro-[5,6]-benzoundec-2′-ene], the IC50 on human V1a receptor [1] is 5 nM; at human V2 receptor [2], 30 nM; at human V2 receptor [3] it was 52 nM; on human V1a receptor [4], 38 nM.

`CN(C)CCNC(=O)C1=CC2(CC1)CCN(C(=O)c1ccc(NC(=O)c3ccccc3-c3ccccc3)cc1)c1ccccc1C2` (racemic) [A, 4-(2-phenylbenzoyl-4-aminobenzoyl)-3′-[2-(N,N-dimethylaminoethylcarbony)]-4-aza-[6,4]-spiro-[5,6]-benzoundec-2′-ene, reference compound]: the IC50 came to 5 nM on human V1a receptor [1], 11 nM on human V2 receptor [2] and 4 nM on human V1a receptor [4].

These data come from patent US7687494B2, “Substituted spirobenzazepines” (Janssen Pharmaceutica NV, priority 2003, dated 2010).
